US20250388575A1, “HETEROBIFUNCTIONAL COMPOUNDS AND METHODS OF TREATING DISEASE” (Halda Therapeutics OpCo, Inc., priority 2022, published 2025)
Where two headings read alike, the source gives them in different places.

Legend:
BRD4-BD1 = BRD4-BD1 (Homo sapiens (Human), UniProt O60885); assay: bromoKdELECT assay for binding affinity to BRD4-BD1; conditions: 11-point 3-fold dilution
Procedure: (§1) Compounds were tested using a bromoKdELECT assay. T7 phage strains displaying bromodomains were grown in parallel in 24-well blocks in an E. coli host derived from the BL21 strain. E. coli were grown to log-phase and infected with T7 phage from a frozen stock (multiplicity of infection=0.4) and incubated with shaking at 32° C. until lysis (90-150 minutes). The lysates were centrifuged (5,000×g) and filtered (0.2 μm) to remove cell debris. Streptavidin-coated magnetic beads were treated with biotinylated small molecule or acetylated peptide ligands for 30 minutes at room temperature to generate affinity resins for bromodomain assays. The liganded beads were blocked with excess biotin and washed with blocking buffer (SeaBlock (Pierce), 1% BSA, 0.05% Tween 20, 1 mM DTT) to remove unbound ligand and to reduce nonspecific phage binding. Binding reactions were assembled by combining bromodomains, liganded affinity beads, and test compounds in 1× binding buffer (17% SeaBlock, 0.33×PBS, 0.04% Tween 20, 0.02% BSA, 0.004% Sodium azide, 7.4 mM DTT). Test compounds were prepared as 1000× stocks in 100% DMSO. Kds were determined using an 11-point 3-fold compound dilution series with one DMSO control point. All compounds for Kd measurements are distributed by acoustic transfer (non-contact dispensing) in 100% DMSO. The compounds were then diluted directly into the assays such that the final concentration of DMSO was 0.09%. All reactions performed in polypropylene 384-well plates. Each was a final volume of 0.02 ml. The assay plates were incubated at room temperature with shaking for 1 hour and the affinity beads were washed with wash buffer (1×PBS, 0.05% Tween 20). The beads were then resuspended in elution buffer (1×PBS, 0.05% Tween 20, 2 μM non-biotinylated affinity ligand) and incubated at room temperature with shaking for 30 minutes. The bromodomain concentration in the eluates was measured by qPCR.

BRD4-BD2 = BRD4-BD2 (Homo sapiens (Human), UniProt O60885); assay: bromoKdELECT assay for binding affinity to BRD4-BD2; conditions: 11-point 3-fold dilution
Procedure: as §1

[1] = system: T-Rex 293 cell line SC3 cells having increased expression of androgen receptor protein; assay: Cellular growth inhibition, T-Rex 293 SC3 cells with increased androgen receptor expression (doxycycline), CellTiter-Glo; format: cell-based; conditions: T-Rex 293 SC3 cells with increased androgen receptor expression (exposed to 10 ng/mL doxycycline), 72 hours, CellTiter-Glo; read-out: GI50
Method in brief: (§2)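 SC3, a T-Rex 293 clone with doxycycline-inducible wild-type androgen receptor, was seeded in phenol red-free DMEM with 10% charcoal-dextran FBS, with or without 10 ng/mL doxycycline. Compound added at 24 h (0.5% DMSO) for 72 h at 37° C. CellTiter-Glo 2.0 luminescence; GI50 from four-parameter fit.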

[2] = system: T-Rex 293 cell line SC3 cells lacking increased expression of androgen receptor protein; assay: Cellular growth inhibition, T-Rex 293 SC3 cells lacking increased androgen receptor expression (no doxycycline), CellTiter-Glo; format: cell-based; conditions: T-Rex 293 SC3 cells lacking increased androgen receptor expression (not exposed to doxycycline), 72 hours, CellTiter-Glo; read-out: GI50
Method in brief: as §2

VCaP cells = assay: Cellular growth inhibition assay for VCaP cells, CellTiter-Glo; format: cell-based, human; conditions: VCaP cells, 72 hours, CellTiter-Glo, read-out: GI50
Method in brief: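 GI50 values come from four-parameter curve fits of luminescence data normalized to a zero baseline. Compound, in medium with 0.5% DMSO, was added one day after plating and left for 72 h before CellTiter-Glo 2.0 addition.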

T47D cells = assay: Cellular growth inhibition assay for T47D cells, CellTiter-Glo; format: cell-based, human; conditions: 72 hours treatment, CellTiter-Glo 2.0
Method in brief: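 Growth inhibition as GI50, fitted with four parameters to CellTiter-Glo luminescence after 72 h of compound exposure (0.5% DMSO). Cells were T47D, grown in insulin-supplemented (0.2 units/mL) DMEM with 10% FBS and treated one day post-seeding.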

| Kd (BRD4-BD1) | Kd (BRD4-BD2) | GI50 (VCaP cells) | GI50 (T47D cells) | GI50 (VCaP cells; Homo sapiens) | GI50 (T47D cells; Homo sapiens) | SMILES | GI50 [1] | GI50 [2] |
| --- | --- | --- | --- | --- | --- | --- | --- | --- |
| > 2.5 µM | > 2.5 µM | < 0.5 µM | < 0.5 µM |  |  | CCS(=O)(=O)c1ccc(Oc2ccc(CCC3CCN(c4ccc(C(=O)N[C@H]5CC[C@H](Oc6ccc(C#N)c(Cl)c6)CC5)nn4)CC3)c(F)c2)c(-c2cn(C)c(=O)c3[nH]ccc23)c1 [I-54] | < 0.5 µM | < 0.5 µM |
| > 2.5 µM | > 2.5 µM |  |  | < 0.5 µM | 1.5 to 3 µM | Cn1cc(-c2cc(C(C)(C)O)ccc2Oc2cc(F)c(CCOC3CCN(c4ccc(C(=O)N[C@H]5CC[C@H](Oc6ccc(C#N)c(Cl)c6)CC5)nn4)CC3)c(F)c2)c2cc[nH]c2c1=O [I-110] | < 0.5 µM | 0.5 to 1.5 µM |
| 0.5 to 2.5 µM | 0.5 to 2.5 µM | < 0.5 µM |  |  |  | CCS(=O)(=O)Cc1ccc(Oc2ccc(CCC3CCN(c4ccc(C(=O)NC5CCC(Oc6ccc(C#N)c(Cl)c6)CC5)nn4)CC3)cc2)c(-c2cn(C)c(=O)c3[nH]ccc23)c1 (stereo not drawn) [I-154, N-[4-(3-chloro-4-cyano-phenoxy)cyclohexyl]-6-[4-[2-[4-[4-(ethylsulfonylmethyl)-2-(6-methyl-7-oxo-1H-pyrrolo[2,3-c]pyridin-4-yl)phenoxy]phenyl]ethyl]-1-piperidyl]pyridazine-3-carboxamide] | < 0.5 µM | < 0.5 µM |
| 0.5 to 2.5 µM | 0.5 to 2.5 µM | 1.5 to 3 µM |  |  |  | Cn1cc(-c2cc(NC(=O)CCC3CCN(c4ccc(C(=O)N[C@H]5CC[C@H](Oc6ccc(C#N)c(Cl)c6)CC5)nn4)CC3)ccc2Oc2ccc(F)cc2F)c2cc[nH]c2c1=O [I-213] | < 0.5 µM | 0.5 to 1.5 µM |

The remaining lines, values behind:

| SMILES | Kd (BRD4-BD1) | Kd (BRD4-BD2) | GI50 (VCaP cells) | GI50 (T47D cells) | GI50 (VCaP cells; Homo sapiens) | GI50 (T47D cells; Homo sapiens) | GI50 [1] | GI50 [2] |
| --- | --- | --- | --- | --- | --- | --- | --- | --- |
| CCS(=O)(=O)c1ccc(Oc2ccc(COC3CCN(c4ccc(C(=O)N[C@H]5CC[C@H](Oc6ccc(C#N)c(Cl)c6)CC5)nn4)CC3)c(F)c2F)c(-c2cn(C)c(=O)c3[nH]ccc23)c1 [I-53] | > 2.5 µM | > 2.5 µM | < 0.5 µM | < 0.5 µM |  |  | < 0.5 µM | < 0.5 µM |
| CCS(=O)(=O)Nc1ccc(Oc2cccc(OCCOCCOCCOCCOCCOC3CCN(c4ccc(C(=O)N[C@H]5CC[C@H](Oc6ccc(C#N)c(Cl)c6)CC5)nn4)CC3)c2)c(-c2cn(C)c(=O)c3[nH]ccc23)c1 [I-3, N-[4-(3-chloro-4-cyano-phenoxy)cyclohexyl]-6-[4-[2-[2-[2-[2-[2-[3-[4-(ethylsulfonylamino)-2-(6-methyl-7-oxo-1H-pyrrolo[2,3-c]pyridin-4-yl)phenoxy]phenoxy]ethoxy]ethoxy]ethoxy]ethoxy]ethoxy]-1-piperidyl]pyridazine-3-carboxamide] | < 0.05 µM | < 0.05 µM |  |  | < 0.5 µM |  | < 0.5 µM | > 3 µM |
| CCS(=O)(=O)Nc1ccc(Oc2ccc(CCC3CCN(c4ccc(C(=O)N[C@H]5CC[C@H](Oc6ccc(C#N)c(Cl)c6)CC5)nn4)CC3)cc2)c(-c2cn(C)c(=O)c3[nH]ccc23)c1 [I-38] | 0.5 to 2.5 µM | 0.5 to 2.5 µM | < 0.5 µM | < 0.5 µM |  |  | < 0.5 µM | < 0.5 µM |
| CCS(=O)(=O)Nc1ccc(Oc2ccc(CCOC3CCN(c4ccc(C(=O)N[C@H]5CC[C@H](Oc6ccc(C#N)c(Cl)c6)CC5)nn4)CC3)cc2)c(-c2cn(C)c(=O)c3[nH]ccc23)c1 [I-35] | < 0.05 µM | < 0.05 µM |  |  | < 0.5 µM |  | < 0.5 µM | < 0.5 µM |
| CCS(=O)(=O)c1ccc(Oc2cccc(OCCCC3CCN(c4ccc(C(=O)N[C@H]5CC[C@H](Oc6ccc(C#N)c(Cl)c6)CC5)nn4)CC3)c2F)c(-c2cn(C)c(=O)c3[nH]ccc23)c1 [I-15] | 0.5 to 2.5 µM | 0.5 to 2.5 µM |  |  | < 0.5 µM |  | < 0.5 µM | < 0.5 µM |
| CCS(=O)(=O)Cc1ccc(Oc2cccc(OCCCC3CCN(c4ccc(C(=O)N[C@H]5CC[C@H](Oc6ccc(C#N)c(Cl)c6)CC5)nn4)CC3)c2F)c(-c2cn(C)c(=O)c3[nH]ccc23)c1 [I-20] | 0.5 to 2.5 µM | 0.5 to 2.5 µM |  |  | < 0.5 µM |  | < 0.5 µM | < 0.5 µM |
